Reference: US20220227792A1, “CARBORANE HYDROXAMIC ACID MATRIX METALLOPROTEINASE AGENTS FOR BORON NEUTRON CAPTURE THERAPY” (LOYOLA UNIVERSITY OF CHICAGO, priority 2019, published 2022)

Assays:
MMP-2 = target: T1, MMP-2 (Homo sapiens, UniProt P08253); assay: MMP inhibition FRET assay, MMP-2; assay type: biochemical; conditions: 390 MMP FRET Substrate I, room temperature, 30 minutes, duplicate; read-out: IC50 MMP2
T1 sequence (P08253 110-660): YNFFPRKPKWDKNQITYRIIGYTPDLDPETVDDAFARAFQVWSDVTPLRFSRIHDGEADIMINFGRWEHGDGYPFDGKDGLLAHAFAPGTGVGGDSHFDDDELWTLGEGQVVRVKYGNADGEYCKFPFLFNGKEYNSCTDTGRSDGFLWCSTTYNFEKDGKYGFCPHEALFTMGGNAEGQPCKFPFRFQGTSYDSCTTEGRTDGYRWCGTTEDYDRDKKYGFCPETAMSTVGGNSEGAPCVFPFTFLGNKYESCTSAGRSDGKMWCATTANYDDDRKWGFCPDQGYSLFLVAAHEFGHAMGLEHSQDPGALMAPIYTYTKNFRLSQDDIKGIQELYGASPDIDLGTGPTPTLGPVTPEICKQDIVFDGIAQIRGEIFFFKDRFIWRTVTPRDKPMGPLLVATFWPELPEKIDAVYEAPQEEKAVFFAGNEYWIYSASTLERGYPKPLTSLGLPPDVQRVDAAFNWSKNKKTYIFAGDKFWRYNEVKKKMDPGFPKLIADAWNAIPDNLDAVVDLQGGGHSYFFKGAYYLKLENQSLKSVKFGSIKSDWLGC
Protocol: (§1) Serial dilutions of a compound were prepared with 10% DMSO and 5 μL of the dilution was added to a 50 μL reaction so that the final concentration of DMSO is 1% in all of reactions.
(§2) The enzymes were diluted in 50 mM HEPES buffer pH 7.4, 10 mM CaCl2, 0.05% Brij-35, and 1 mM APMA for activation at 37° C. for 2 hours.
(§3) […] activity assays were performed in duplicate at each concentration. The fluorescent intensity data were analyzed using the computer software, Graphpad Prism. In the absence of the compound, the fluorescent intensity (Ft) in each data set was defined as 100% activity. In the absence of enzyme, the fluorescent intensity (Fb) in each data set was defined as 0% activity. The percent activity in the presence of each compound was calculated according to the following equation: %activity=(F−Fb)/(Ft−Fb), where F=the fluorescent intensity in the presence of the compound.
(§4) The values of % activity versus a series of compound concentrations were then plotted using non-linear regression analysis of Sigmoidal dose-response curve generated with the equation Y=B+(T−B)/1+10^((Log EC50−X)×Hill Slope), where Y=percent activity, B=minimum percent activity, T=maximum percent activity, X=logarithm of compound and Hill Slope=slope factor or Hill coefficient. The IC50 value was determined by the concentration causing a half-maximal percent activity.

MMP9 (Q279R) = MMP9 (Q279R) (Homo sapiens, UniProt P14780, Q279R); assay: MMP inhibition FRET assay, MMP-9; assay type: biochemical; conditions: 390 MMP FRET Substrate I, room temperature, 30 minutes, duplicate
Chain of MMP9 (Q279R) (P14780 107-707 Q279R limits assumed): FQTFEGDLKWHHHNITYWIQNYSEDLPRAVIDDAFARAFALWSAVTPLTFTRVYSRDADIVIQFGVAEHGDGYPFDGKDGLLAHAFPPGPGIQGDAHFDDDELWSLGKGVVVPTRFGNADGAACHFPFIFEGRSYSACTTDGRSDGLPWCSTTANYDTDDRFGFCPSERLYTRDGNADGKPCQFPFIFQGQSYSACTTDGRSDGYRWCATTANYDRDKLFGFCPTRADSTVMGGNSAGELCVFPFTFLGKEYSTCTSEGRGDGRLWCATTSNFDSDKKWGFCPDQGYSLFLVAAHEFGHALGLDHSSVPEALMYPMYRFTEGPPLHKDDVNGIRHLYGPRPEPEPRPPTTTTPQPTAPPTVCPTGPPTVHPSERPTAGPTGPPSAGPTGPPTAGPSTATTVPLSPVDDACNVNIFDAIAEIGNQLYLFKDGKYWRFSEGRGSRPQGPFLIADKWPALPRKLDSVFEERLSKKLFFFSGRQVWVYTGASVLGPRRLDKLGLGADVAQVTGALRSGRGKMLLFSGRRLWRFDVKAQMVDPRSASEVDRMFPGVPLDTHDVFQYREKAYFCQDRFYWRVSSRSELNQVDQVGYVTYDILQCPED
Protocol: as §1, §2, §3, §4

- IC50 (MMP-2): 4 nM
- IC50 (MMP9 (Q279R)): 4 nM
SMILES: COc1ccc(S(=O)(=O)N(CC(=O)NO)CC(C)C)cc1 [NNGH, N-Isobutyl-N-(4-methoxyphenylsulfonyl)glycyl Hydroxamic Acid]
